Target: Aβ42 (Homo sapiens, UniProt P05067)
Experiment: Th-T (thioflavin-T) assay of Aβ42 aggregation
Assay type: biochemical
Conditions: for Th-T assay plate reading, mean of three wells (Supplementary Fig. 47): source data, Ab alone and No Ab as controls

Chain of Aβ42 (P05067 672-713): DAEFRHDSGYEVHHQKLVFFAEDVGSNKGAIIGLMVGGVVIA

C=C1CCC2C(C)(CCC=C(C)C)C(=O)CCC2(C)C1Cc1c(O)c(C)c(C)oc1=O (stereo not shown) [Compound 8]
Th-T fluorescence, mean of three wells (Aβ42 aggregation time course, reading M118): 2.194 | Th-T fluorescence, mean of three wells (Aβ42 aggregation time course, reading M119): 2.214 | Th-T fluorescence, mean of three wells (Aβ42 aggregation time course, reading M120): 2.225 | Th-T fluorescence, mean of three wells (Aβ42 aggregation time course, reading M121): 2.184 | Th-T fluorescence, mean of three wells (Aβ42 aggregation time course, reading M122): 2.1853 | Th-T fluorescence, mean of three wells (Aβ42 aggregation time course, reading M123): 2.186 | Th-T fluorescence, mean of three wells (Aβ42 aggregation time course, reading M124): 2.207 | Th-T fluorescence, mean of three wells (Aβ42 aggregation time course, reading M125): 2.241 | Th-T fluorescence, mean of three wells (Aβ42 aggregation time course, reading M126): 2.218 | Th-T fluorescence, mean of three wells (Aβ42 aggregation time course, reading M127): 2.187 | Th-T fluorescence, mean of three wells (Aβ42 aggregation time course, reading M128): 2.217 | Th-T fluorescence, mean of three wells (Aβ42 aggregation time course, reading M129): 2.196 | Th-T fluorescence, mean of three wells (Aβ42 aggregation time course, reading M130): 2.222 | Th-T fluorescence, mean of three wells (Aβ42 aggregation time course, reading M131): 2.189 | Th-T fluorescence, mean of three wells (Aβ42 aggregation time course, reading M132): 2.211 | Th-T fluorescence, mean of three wells (Aβ42 aggregation time course, reading M133): 2.1957 | Th-T fluorescence, mean of three wells (Aβ42 aggregation time course, reading M134): 2.2077 | Th-T fluorescence, mean of three wells (Aβ42 aggregation time course, reading M135): 2.191 | Th-T fluorescence, mean of three wells (Aβ42 aggregation time course, reading M136): 2.198 | Th-T fluorescence, mean of three wells (Supplementary Fig. 47, reading M138): 2.179 | Th-T fluorescence, mean of three wells (Supplementary Fig. 47, reading M139): 2.196 | Th-T fluorescence, mean of three wells (Supplementary Fig. 47, reading M140): 2.2093 | Th-T fluorescence, mean of three wells (Supplementary Fig. 47, reading M141): 2.191 | Th-T fluorescence, mean of three wells (Supplementary Fig. 47, reading M142): 2.182 | Th-T fluorescence, mean of three wells (Supplementary Fig. 47, reading M143): 2.202 | Th-T fluorescence, mean of three wells (Supplementary Fig. 47, reading M144): 2.22 | Th-T fluorescence, mean of three wells (Supplementary Fig. 47, reading M145): 2.173 | Th-T fluorescence, mean of three wells (Supplementary Fig. 47 source data, measurement M38 of time course): 2.163 | Th-T fluorescence, mean of three wells (Supplementary Fig. 47 source data, measurement M39 of time course): 2.1439 | Th-T fluorescence, mean of three wells (Supplementary Fig. 47 source data, measurement M40 of time course): 2.183 | Th-T fluorescence, mean of three wells (Supplementary Fig. 47 source data, measurement M41 of time course): 2.185 | Th-T fluorescence, mean of three wells (Supplementary Fig. 47 source data, measurement M42 of time course): 2.198 | Th-T fluorescence, mean of three wells (Supplementary Fig. 47 source data, measurement M43 of time course): 2.197 | Th-T fluorescence, mean of three wells (Supplementary Fig. 47 source data, measurement M44 of time course): 2.1886 | Th-T fluorescence, mean of three wells (Supplementary Fig. 47 source data, measurement M45 of time course): 2.191 | Th-T fluorescence, mean of three wells (Supplementary Fig. 47 source data, measurement M46 of time course): 2.181 | Th-T fluorescence, mean of three wells (Supplementary Fig. 47 source data, measurement M47 of time course): 2.191 | Th-T fluorescence, mean of three wells (Supplementary Fig. 47 source data, measurement M48 of time course): 2.202 | Th-T fluorescence, mean of three wells (Supplementary Fig. 47 source data, measurement M49 of time course): 2.2088 | Th-T fluorescence, mean of three wells (Supplementary Fig. 47 source data, measurement M50 of time course): 2.229 | Th-T fluorescence, mean of three wells (Supplementary Fig. 47 source data, measurement M51 of time course): 2.215 | Th-T fluorescence, mean of three wells (Supplementary Fig. 47 source data, measurement M52 of time course): 2.214 | Th-T fluorescence, mean of three wells (Supplementary Fig. 47 source data, measurement M53 of time course): 2.236 | Th-T fluorescence, mean of three wells (Supplementary Fig. 47 source data, measurement M54 of time course): 2.223 | Th-T fluorescence, mean of three wells (Supplementary Fig. 47 source data, measurement M55 of time course): 2.205 | Th-T fluorescence, mean of three wells (Supplementary Fig. 47 source data, measurement M56 of time course): 2.204 | Th-T assay plate reading, mean of three wells (Supplementary Fig. 47) (measurement M2): 0.2095 | Th-T assay plate reading, mean of three wells (Supplementary Fig. 47) (measurement M3): 0.2324 | Th-T assay plate reading, mean of three wells (Supplementary Fig. 47) (measurement M4): 0.2683 | Th-T assay plate reading, mean of three wells (Supplementary Fig. 47) (measurement M5): 0.2913 | Th-T assay plate reading, mean of three wells (Supplementary Fig. 47) (measurement M6): 0.3294 | Th-T assay plate reading, mean of three wells (Supplementary Fig. 47) (measurement M7): 0.3614 | Th-T assay plate reading, mean of three wells (Supplementary Fig. 47) (measurement M8): 0.4027 | Th-T assay plate reading, mean of three wells (Supplementary Fig. 47) (measurement M9): 0.444 | Th-T assay plate reading, mean of three wells (Supplementary Fig. 47) (measurement M10): 0.4702 | Th-T assay plate reading, mean of three wells (Supplementary Fig. 47) (measurement M11): 0.5005 | Th-T assay plate reading, mean of three wells (Supplementary Fig. 47) (measurement M12): 0.5205 | Th-T assay plate reading, mean of three wells (Supplementary Fig. 47) (measurement M13): 0.553 | Th-T assay plate reading, mean of three wells (Supplementary Fig. 47) (measurement M14): 0.605 | Th-T assay plate reading, mean of three wells (Supplementary Fig. 47) (measurement M15): 0.733 | Th-T assay plate reading, mean of three wells (Supplementary Fig. 47) (measurement M16): 0.9658 | Th-T fluorescence, mean of three wells (reading M18, Supplementary Fig. 47 source data): 1.528 | Th-T fluorescence, mean of three wells (reading M19, Supplementary Fig. 47 source data): 1.697 | Th-T fluorescence, mean of three wells (reading M20, Supplementary Fig. 47 source data): 1.804 | Th-T fluorescence, mean of three wells (reading M21, Supplementary Fig. 47 source data): 1.844 | Th-T fluorescence, mean of three wells (reading M22, Supplementary Fig. 47 source data): 1.86 | Th-T fluorescence, mean of three wells (reading M23, Supplementary Fig. 47 source data): 1.891 | Th-T fluorescence, mean of three wells (reading M24, Supplementary Fig. 47 source data): 1.925 | Th-T fluorescence, mean of three wells (reading M25, Supplementary Fig. 47 source data): 1.959 | Th-T fluorescence, mean of three wells (reading M26, Supplementary Fig. 47 source data): 2.003 | Th-T fluorescence, mean of three wells (reading M27, Supplementary Fig. 47 source data): 2.003 | Th-T fluorescence, mean of three wells (reading M28, Supplementary Fig. 47 source data): 2.0134 | Th-T fluorescence, mean of three wells (reading M29, Supplementary Fig. 47 source data): 2.048 | Th-T fluorescence, mean of three wells (reading M30, Supplementary Fig. 47 source data): 2.063 | Th-T fluorescence, mean of three wells (reading M31, Supplementary Fig. 47 source data): 2.093 | Th-T fluorescence, mean of three wells (reading M32, Supplementary Fig. 47 source data): 2.109 | Th-T fluorescence, mean of three wells (reading M33, Supplementary Fig. 47 source data): 2.135 | Th-T fluorescence, mean of three wells (reading M34, Supplementary Fig. 47 source data): 2.108 | Th-T fluorescence, mean of three wells (reading M35, Supplementary Fig. 47 source data): 2.139 | Th-T fluorescence, mean of three wells (reading M36, Supplementary Fig. 47 source data): 2.159 | Th-T fluorescence, mean of three wells (time course, reading M58): 2.216 | Th-T fluorescence, mean of three wells (time course, reading M59): 2.2236 | Th-T fluorescence, mean of three wells (time course, reading M60): 2.219 | Th-T fluorescence, mean of three wells (time course, reading M61): 2.226 | Th-T fluorescence, mean of three wells (time course, reading M62): 2.227 | Th-T fluorescence, mean of three wells (time course, reading M63): 2.25 | Th-T fluorescence, mean of three wells (time course, reading M64): 2.223 | Th-T fluorescence, mean of three wells (time course, reading M65): 2.24 | Th-T fluorescence, mean of three wells (time course, reading M66): 2.247 | Th-T fluorescence, mean of three wells (time course, reading M67): 2.214 | Th-T fluorescence, mean of three wells (time course, reading M68): 2.201 | Th-T fluorescence, mean of three wells (time course, reading M69): 2.2304 | Th-T fluorescence, mean of three wells (time course, reading M70): 2.212 | Th-T fluorescence, mean of three wells (time course, reading M71): 2.214 | Th-T fluorescence, mean of three wells (time course, reading M72): 2.213 | Th-T fluorescence, mean of three wells (time course, reading M73): 2.224 | Th-T fluorescence, mean of three wells (time-course reading M98, Supplementary Fig. 47 source data): 2.211 | Th-T fluorescence, mean of three wells (time-course reading M99, Supplementary Fig. 47 source data): 2.236 | Th-T fluorescence, mean of three wells (time-course reading M100, Supplementary Fig. 47 source data): 2.235 | Th-T fluorescence, mean of three wells (time-course reading M101, Supplementary Fig. 47 source data): 2.216 | Th-T fluorescence, mean of three wells (time-course reading M102, Supplementary Fig. 47 source data): 2.236 | Th-T fluorescence, mean of three wells (time-course reading M103, Supplementary Fig. 47 source data): 2.209 | Th-T fluorescence, mean of three wells (time-course reading M104, Supplementary Fig. 47 source data): 2.206 | Th-T fluorescence, mean of three wells (time-course reading M105, Supplementary Fig. 47 source data): 2.201 | Th-T fluorescence, mean of three wells (time-course reading M106, Supplementary Fig. 47 source data): 2.237 | Th-T fluorescence, mean of three wells (time-course reading M107, Supplementary Fig. 47 source data): 2.2129 | Th-T fluorescence, mean of three wells (time-course reading M108, Supplementary Fig. 47 source data): 2.1995 | Th-T fluorescence, mean of three wells (time-course reading M109, Supplementary Fig. 47 source data): 2.203 | Th-T fluorescence, mean of three wells (time-course reading M110, Supplementary Fig. 47 source data): 2.217 | Th-T fluorescence, mean of three wells (time-course reading M111, Supplementary Fig. 47 source data): 2.201 | Th-T fluorescence, mean of three wells (time-course reading M112, Supplementary Fig. 47 source data): 2.214 | Th-T fluorescence, mean of three wells (time-course reading M113, Supplementary Fig. 47 source data): 2.2232 | Th-T fluorescence, mean of three wells (time-course reading M114, Supplementary Fig. 47 source data): 2.196 | Th-T fluorescence, mean of three wells (time-course reading M115, Supplementary Fig. 47 source data): 2.1937 | Th-T fluorescence, mean of three wells (time-course reading M116, Supplementary Fig. 47 source data): 2.237

Reference: PMC7156458, “Synthetic biology based construction of biological activity-related library of fungal decalin-containing diterpenoid pyrones” (Nature Communications, 2020)
